Experimental data reported in ChEMBL document CHEMBL1129998, “Pharmacological options in the treatment of benign prostatic hyperplasia” (J Med Chem, 1997).

Assays:
[1] = molecular target: T1, 3-oxo-5-alpha-steroid 4-dehydrogenase 2 (Homo sapiens, UniProt P31213); experiment: Inhibitory concentration on human 5-alpha reductase 2 (transfected SW-13 cells)
T1 sequence (P31213 whole entry): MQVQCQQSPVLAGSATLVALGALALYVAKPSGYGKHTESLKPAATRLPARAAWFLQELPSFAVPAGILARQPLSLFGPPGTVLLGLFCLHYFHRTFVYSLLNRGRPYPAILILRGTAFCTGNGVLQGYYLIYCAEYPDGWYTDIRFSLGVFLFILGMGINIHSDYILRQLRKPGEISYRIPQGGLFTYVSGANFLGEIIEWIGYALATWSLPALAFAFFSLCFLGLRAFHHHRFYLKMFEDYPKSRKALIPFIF

[2] = molecular target: T2, Steroid 5-alpha-reductase (Rattus norvegicus, UniProt P24008+P31214); experiment: Binding affinity on rat 5-alpha reductase-1 isozyme; assay type: protein assay
T2 sequence (P24008 whole entry): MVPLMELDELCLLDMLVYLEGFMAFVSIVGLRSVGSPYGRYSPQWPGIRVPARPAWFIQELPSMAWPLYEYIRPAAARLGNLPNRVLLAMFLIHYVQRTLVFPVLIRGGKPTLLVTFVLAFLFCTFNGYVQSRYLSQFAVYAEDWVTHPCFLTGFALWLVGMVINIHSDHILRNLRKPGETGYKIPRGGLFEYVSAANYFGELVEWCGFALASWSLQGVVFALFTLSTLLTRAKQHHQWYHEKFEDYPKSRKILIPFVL
T2 sequence (P31214 whole entry): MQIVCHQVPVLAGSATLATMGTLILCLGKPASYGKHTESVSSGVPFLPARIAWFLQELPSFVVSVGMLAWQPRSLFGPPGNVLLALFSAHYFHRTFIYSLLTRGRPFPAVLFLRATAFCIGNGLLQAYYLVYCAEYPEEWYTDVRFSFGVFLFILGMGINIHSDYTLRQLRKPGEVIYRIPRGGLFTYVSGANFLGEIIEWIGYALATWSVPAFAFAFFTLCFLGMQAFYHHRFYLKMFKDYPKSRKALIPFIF

[3] = Dose (iv) for 20% reduction of mean blood pressure in rat (ID20) with the dose for 50% inhibition of norepinephrine-mediated contraction of proximal urethra (ID50) in cat; assay type: functional
Canis familiaris [4] = experiment: 50% reduction in agonist induced pressor response in anesthetized dog; assay type: functional; conditions: Canis lupus familiaris; read-out: ID50 (the source's name)
[5] = molecular target: T3, Alpha-1D adrenergic receptor (Homo sapiens, UniProt P25100); experiment: Binding affinity was tested on human Alpha-1D adrenergic receptor
T3 sequence (P25100 whole entry): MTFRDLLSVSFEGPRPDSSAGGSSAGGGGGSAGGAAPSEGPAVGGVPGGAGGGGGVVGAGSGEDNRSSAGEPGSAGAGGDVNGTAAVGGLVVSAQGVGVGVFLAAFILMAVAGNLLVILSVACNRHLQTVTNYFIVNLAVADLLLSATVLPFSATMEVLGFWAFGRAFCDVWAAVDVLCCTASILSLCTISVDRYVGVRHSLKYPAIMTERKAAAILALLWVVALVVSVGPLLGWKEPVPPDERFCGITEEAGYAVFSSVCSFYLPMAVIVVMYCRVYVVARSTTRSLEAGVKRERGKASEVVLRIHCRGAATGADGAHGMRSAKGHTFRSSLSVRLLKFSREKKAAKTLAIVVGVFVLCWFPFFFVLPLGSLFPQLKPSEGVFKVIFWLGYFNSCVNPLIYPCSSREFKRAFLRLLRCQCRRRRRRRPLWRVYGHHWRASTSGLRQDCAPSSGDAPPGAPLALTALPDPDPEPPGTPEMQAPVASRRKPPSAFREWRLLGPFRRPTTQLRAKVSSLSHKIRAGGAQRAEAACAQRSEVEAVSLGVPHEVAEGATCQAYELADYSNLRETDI

[6] = molecular target: T4, Adrenergic receptor alpha-1 (Homo sapiens, UniProt P35348+P25100+P35368); experiment: pA2 for Alpha-1 adrenergic receptor from human prostate.; assay type: tissue-based, Prostate gland
T4 sequence (P35348 whole entry): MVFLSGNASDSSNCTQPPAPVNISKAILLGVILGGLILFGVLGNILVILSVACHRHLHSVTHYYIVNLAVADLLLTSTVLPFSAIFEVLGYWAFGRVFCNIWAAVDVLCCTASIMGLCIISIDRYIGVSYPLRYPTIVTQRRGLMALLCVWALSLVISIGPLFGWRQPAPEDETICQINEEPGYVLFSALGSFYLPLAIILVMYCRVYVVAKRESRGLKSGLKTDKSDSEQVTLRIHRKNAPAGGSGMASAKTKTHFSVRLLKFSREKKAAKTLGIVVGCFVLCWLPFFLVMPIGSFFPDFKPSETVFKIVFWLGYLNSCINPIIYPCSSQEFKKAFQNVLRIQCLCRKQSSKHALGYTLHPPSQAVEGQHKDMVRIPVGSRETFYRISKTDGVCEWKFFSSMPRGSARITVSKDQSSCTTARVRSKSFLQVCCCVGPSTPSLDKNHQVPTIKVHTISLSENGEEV
T4 sequence (P25100 whole entry): T3 sequence (P25100 whole entry)
T4 sequence (P35368 whole entry): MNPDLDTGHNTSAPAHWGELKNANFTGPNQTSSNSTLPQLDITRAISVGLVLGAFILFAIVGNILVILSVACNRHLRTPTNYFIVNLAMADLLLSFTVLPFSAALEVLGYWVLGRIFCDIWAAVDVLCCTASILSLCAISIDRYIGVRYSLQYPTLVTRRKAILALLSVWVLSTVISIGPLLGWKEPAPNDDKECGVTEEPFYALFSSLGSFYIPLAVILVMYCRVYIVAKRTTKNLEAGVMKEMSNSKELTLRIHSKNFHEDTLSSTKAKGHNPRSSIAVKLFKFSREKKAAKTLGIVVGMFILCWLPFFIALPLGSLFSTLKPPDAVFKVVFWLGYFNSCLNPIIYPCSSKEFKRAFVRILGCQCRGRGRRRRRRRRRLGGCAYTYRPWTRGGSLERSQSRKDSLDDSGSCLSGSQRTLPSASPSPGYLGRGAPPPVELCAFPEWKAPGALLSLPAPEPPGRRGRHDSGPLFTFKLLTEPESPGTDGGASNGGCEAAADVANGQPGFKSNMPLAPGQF

[7] = molecular target: T5, Alpha-1B adrenergic receptor (Homo sapiens, UniProt P35368); experiment: Binding affinity was tested on human Alpha-1B adrenergic receptor
T5 sequence (P35368 whole entry): T4 sequence (P35368 whole entry)

[8] = Ratio of intraurethral pressure to that of pressor response in dog.; assay type: functional
Canis familiaris [9] = experiment: 50% reduction in intraurethral pressure (IUP) in response to hypogastric nerve stimulation or agonist (phenylephrine or norepinephrine) administration in anesthetized dog; assay type: functional; conditions: Canis lupus familiaris; read-out: ID50 (the source's name)
[10] = molecular target: T6, Alpha-1A adrenergic receptor (Homo sapiens, UniProt P35348); experiment: Binding affinity was tested on human Alpha-1A adrenergic receptor
T6 sequence (P35348 whole entry): T4 sequence (P35348 whole entry)

[11] = molecular target: 3 beta-hydroxysteroid dehydrogenase/Delta 5-->4-isomerase type 1 (Homo sapiens, UniProt P14060); experiment: Binding affinity on 3 beta-hydroxysteroid dehydrogenase
[12] = In vivo dose (iv) for 50% inhibition of norepinephrine-mediated contraction of proximal urethra (ID50) with the dose (iv) for 25% reduction in systolic blood pressure (ED25) in anesthetized dogs; assay type: functional
[13] = molecular target: T7, 3-oxo-5-alpha-steroid 4-dehydrogenase 1 (Homo sapiens, UniProt P18405); experiment: Binding affinity for human 5 alpha reductase 1 isozyme
T7 sequence (P18405 whole entry): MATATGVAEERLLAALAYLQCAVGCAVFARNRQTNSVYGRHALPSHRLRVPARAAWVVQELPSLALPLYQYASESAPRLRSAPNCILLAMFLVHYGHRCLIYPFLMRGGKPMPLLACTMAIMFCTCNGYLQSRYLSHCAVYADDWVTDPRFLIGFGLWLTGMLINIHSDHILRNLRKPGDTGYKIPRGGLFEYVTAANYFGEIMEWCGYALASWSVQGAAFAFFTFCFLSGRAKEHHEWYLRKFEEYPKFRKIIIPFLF

[14] = molecular target: T8, Alpha-1A adrenergic receptor (Rattus norvegicus, UniProt P43140); experiment: Binding affinity was tested on CEC-pretreated rat hippocampus Alpha-1A adrenergic receptor; assay type: tissue-based
T8 sequence (P43140 whole entry): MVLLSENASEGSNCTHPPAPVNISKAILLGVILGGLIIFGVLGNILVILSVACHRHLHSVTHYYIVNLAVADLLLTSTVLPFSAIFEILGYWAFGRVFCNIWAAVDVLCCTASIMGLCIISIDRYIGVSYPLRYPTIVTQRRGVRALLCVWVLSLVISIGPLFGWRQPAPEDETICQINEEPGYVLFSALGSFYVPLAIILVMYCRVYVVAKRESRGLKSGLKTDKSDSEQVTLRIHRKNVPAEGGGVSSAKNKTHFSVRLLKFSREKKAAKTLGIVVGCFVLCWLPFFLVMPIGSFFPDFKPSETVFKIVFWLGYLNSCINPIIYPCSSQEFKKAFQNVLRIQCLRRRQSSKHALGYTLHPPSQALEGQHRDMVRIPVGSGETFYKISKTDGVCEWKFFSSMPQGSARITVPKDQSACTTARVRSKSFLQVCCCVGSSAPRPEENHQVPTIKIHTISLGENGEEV

[15] = molecular target: T9, Alpha-1B adrenergic receptor (Rattus norvegicus, UniProt P15823); experiment: Binding affinity was tested on CEC-pretreated rat liver Alpha-1B adrenergic receptor
T9 sequence (P15823 whole entry): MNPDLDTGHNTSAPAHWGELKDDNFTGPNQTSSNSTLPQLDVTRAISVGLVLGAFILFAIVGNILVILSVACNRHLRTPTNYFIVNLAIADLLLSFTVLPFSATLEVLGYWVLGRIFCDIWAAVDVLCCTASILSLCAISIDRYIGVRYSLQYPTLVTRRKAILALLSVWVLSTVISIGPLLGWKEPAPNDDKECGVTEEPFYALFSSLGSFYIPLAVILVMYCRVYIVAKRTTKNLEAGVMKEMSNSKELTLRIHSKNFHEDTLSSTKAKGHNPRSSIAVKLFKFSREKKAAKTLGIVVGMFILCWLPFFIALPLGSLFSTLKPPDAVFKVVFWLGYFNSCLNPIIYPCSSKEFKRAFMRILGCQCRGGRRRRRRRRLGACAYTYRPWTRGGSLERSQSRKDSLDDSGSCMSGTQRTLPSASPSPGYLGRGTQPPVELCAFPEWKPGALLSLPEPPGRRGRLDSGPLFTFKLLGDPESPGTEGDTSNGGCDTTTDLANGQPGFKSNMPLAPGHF

Sequence of 3 beta-hydroxysteroid dehydrogenase/Delta 5-->4-isomerase type 1 (P14060 whole entry): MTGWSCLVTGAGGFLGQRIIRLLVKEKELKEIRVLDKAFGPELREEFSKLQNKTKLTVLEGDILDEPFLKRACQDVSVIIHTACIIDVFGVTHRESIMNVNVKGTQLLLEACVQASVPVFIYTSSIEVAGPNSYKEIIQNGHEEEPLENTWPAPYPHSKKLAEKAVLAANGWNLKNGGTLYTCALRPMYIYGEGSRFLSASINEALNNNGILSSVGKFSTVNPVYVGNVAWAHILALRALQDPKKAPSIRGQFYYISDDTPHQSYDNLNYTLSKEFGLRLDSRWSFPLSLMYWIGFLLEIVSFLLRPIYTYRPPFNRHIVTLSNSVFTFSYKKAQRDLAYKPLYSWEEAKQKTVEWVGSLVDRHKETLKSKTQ

Row | Structure (SMILES) | Ki [5] | Ki [7] | Ki [10] | ED50 (Canis familiaris [4]) | Ratio [8] | ED50 (Canis familiaris [9]) | further results
1 | CC(C)(C)NC(=O)[C@H]1CCC2C3CCC4=C(C#N)C(=O)CC[C@]4(C)C3CC[C@@]21C (stereo not given in full) |  |  |  |  |  |  | IC50 [1]: 2.9 nM
2 | C[C@]12CCC(C(=O)O)=CC1=CCc1cc(Cl)ccc12 |  |  |  |  |  |  | Ki [2]: 1200 nM
3 | NC(=O)c1ccnc(NCCCN2CCN(c3cccc(Cl)c3)CC2)n1 |  |  |  |  |  |  | Ratio [3]: 18
4 | CC(C)(C)CC(C)(C)NC(=O)[C@H]1CCC2C3CNC4=CC(=O)CC[C@]4(C)C3CC[C@@]21C (stereo not given in full) |  |  |  |  |  |  | IC50 [11]: 150 nM
5 | COc1ccccc1N1CCN(CCCNC(=O)c2ccccc2OCc2ccccc2)CC1 |  |  |  |  |  |  | Ratio [12]: 16
6 | CC(C)(C)NC(=O)[C@H]1CC[C@H]2[C@@H]3CC[C@H]4NC(=O)C=C[C@]4(C)[C@H]3CC[C@]12C [FINASTERIDE] |  |  |  |  |  |  | Ki [13]: 150 nM
7 | COc1ccccc1N1CCN(CCCCOc2cccc3c(=O)c(C)c(-c4ccccc4)oc23)CC1 |  |  |  |  |  |  | Ratio [12]: 13; IC50 [14]: 10 nM; IC50 [15]: 39 nM

Continued, in another order:

Row | Ki [5] | Ki [7] | Ki [10] | Structure (SMILES) | ED50 (Canis familiaris [4]) | Ratio [8] | ED50 (Canis familiaris [9]) | further results
8 | 2.51 nM | 12.6 nM | 2.51 nM | COc1ccc(Cl)cc1N1CCN(CCCNc2nccc(C(N)=O)n2)CC1 | 0.021 mg/kg | 5 | 0.005 mg/kg | Ratio [3]: 46; pA2 [6]: 8.6
9 | 100 nM | 79.4 nM | 1 nM | Cc1c[nH]c(=O)n(CCCN2CCN(c3ccc(F)cc3OCC(F)(F)F)CC2)c1=O | 0.38 mg/kg | 76 | 0.005 mg/kg | pA2 [6]: 8.8
10 | 25.1 nM | 15.8 nM | 0.2 nM | COc1ccc(CCN2CCC(c3nc(COCC(F)(F)F)c(-c4ccc(F)cc4)o3)CC2)cc1S(N)(=O)=O | 7.25 mg/kg | 550 | 0.013 mg/kg | 
